This passage reports NOEL, LD50 and LC50 results from EPA's ToxValDB 9.5 (doi:10.2903/j.efsa.2013.3235).

One series has as its system Canidae. The conditions noted are these: reproduction developmental; duration: 1 years; Dog Other.
The next series relates to Rattus norvegicus. The conditions noted are these: for LD50: acute, mortality.
The next series deals with Anas platyrhynchos. Particulars: short-term; oral; feed.
The next series deals with Coturnix japonica. Particulars: acute; oral; mortality.
A further series deals with Mus musculus. The conditions noted are these: acute; oral; mortality.

Where “and” joins values, the source holds several entries; their conditions need not be identical. Identical values can stand only once.

For the molecule `O=C([O-])[C@H](O)[C@@H](O)[C@H](O)[C@H](O)CO.O=C([O-])[C@H](O)[C@@H](O)[C@H](O)[C@H](O)CO.[Cu+2]` [Copper gluconate], the NOEL is 15 mg/kg-day in the series with Canidae and 27 mg/kg-day in the series with Rattus norvegicus (chronic).

With `O.O.[Cu]` [Copper hydroxide (Cu(OH)2)], the NOEL in the series with Anas platyrhynchos is 216 mg/kg-day and 191 mg/kg-day; in the series with Colinus virginianus (reproduction developmental), 5.05 mg/kg-day and 5.12 mg/kg-day; in the series on Colinus virginianus (short-term, oral, diet), 124 mg/kg-day and 135 mg/kg-day. Further, the LD50 is 223 mg/kg with Colinus virginianus (acute, oral, mortality); 556 mg/kg with Coturnix japonica; 679 mg/kg in the series on Rattus norvegicus (F); 736 mg/kg in the series with Rattus norvegicus (M); 439 mg/kg and 281 mg/kg with Rattus norvegicus.

In turn, `[Cu+].[Cu+].[O-2]` [Cuprous oxide] gave an NOEL in the series with Colinus virginianus (short-term, oral, diet) of 31.9 mg/kg-day. Further, the LD50 in the series with Coturnix japonica came to 1180 mg/kg; in the series with Rattus norvegicus (oral), 261 mg/kg.

In the series with Colinus virginianus (acute, oral, diet, mortality), `[Cl-].[Cu+2].[Cu+2].[OH-].[OH-].[OH-]` [Dicopper chloride trihydroxide] gave an LC50 of 333 mg/kg-day. Moreover, the LD50 with Colinus virginianus (acute, oral, mortality) is 511 mg/kg; in the series on Mus musculus, 171 mg/kg; in the series on Rattus norvegicus (F), 548 mg/kg; in the series on Rattus norvegicus (M), 693 mg/kg; in the series on Rattus norvegicus it was 1080 mg/kg and 807 mg/kg.
